From PMC3977315 (2010)
Values belong to the compound of their own block, whether it stands above or below them.

Legend:
[1] = system: poly(dA)•2poly(dT) (DNA, polymer) A/T; experiment: UV melting; settings: K+ 150 mM, 10 mM sodium cacodylate, pH 6.8, rdb 1.67
[2] = system: poly(dA)•2poly(dT) (DNA, polymer) A/T; experiment: calorimetric/spectroscopic thermodynamic profile; settings: K+ 150 mM; 10 mM sodium cacodylate, 0.5 mM EDTA, pH 5.5, 20 °C
[3] = system: poly(dA)•poly(dT) (DNA, polymer) A/T; experiment: fluorescent intercalator displacement; settings: K+ 150 mM; Na+ 10 mM; thiazole orange not displaced; highest concentration 10 mM
[4] = system: poly(dA)•2poly(dT) (DNA, polymer) A/T; experiment: fluorescent intercalator displacement; settings: thiazole orange displaced

binding [1]: weak
SMILES: NC[C@H]1O[C@H](O[C@H]2[C@H](O)[C@@H](O)[C@H](N)C[C@@H]2N)[C@H](N)[C@@H](O)[C@@H]1O

ΔTm3→2 ([1]; 25 μM neomycin, per base): ~ 25 °C | KT(20°C) [2]: (2.4±0.1)×10^5 M^−1 | AC50 [3]: > 10 mM
SMILES: NC[C@@H]1O[C@H](O[C@H]2[C@@H](O)[C@H](O[C@@H]3[C@@H](O)[C@H](N)C[C@H](N)[C@H]3O[C@H]3O[C@H](CN)[C@@H](O)[C@H](O)[C@H]3N)O[C@@H]2CO)[C@H](N)[C@@H](O)[C@@H]1O

binding [4]: weak
SMILES: NC[C@H]1O[C@H](O[C@H]2[C@H](O[C@@H]3O[C@H](CO)[C@@H](O)[C@H]3O)[C@@H](O)[C@H](N)C[C@@H]2N)[C@H](N)[C@@H](O)[C@@H]1O
